Data published in patent US4672036A, “Pure cultures of Kibdelsporangium aridum Shearer gen. nov., sp. nov. ATCC 39323 and mutants thereof” (SmithKline Beckman Corporation, priority 1985, dated 1987).
≈ marks a conversion by molar mass, not a printed value. Where “and” joins values, the source holds several entries; their conditions need not be identical. Equal entries are not always repeated. Where two headings read alike, the source gives them in different places.

Experiments:
K. aridum = experiment: susceptibility of K. aridum to antibiotics, disk diffusion method; format: cell-based, Kibdelosporangium aridum; settings: for zone of inhibition at 5 µg/disc: Kibdelosporangium aridum, 168 h
Procedure: Susceptibility of K. aridum to antibiotics was examined by placing BBL susceptibility disks on nutrient agar plates seeded with K. aridum as an overlay. Diameters of the zones of inhibition were measured after incubation for one week at 28° C.
Chlortetracycline ([…]) produced 18 mm zones of inhibition; tetracycline (5 μg) 11-12 mm zones; rifampin (5 μg) 11-15 mm zones; novobiocin (5 μg) 27-28 mm zones. All zones of inhibition contained at least a few resistant colonies.

Swine in vitro model = experiment: swine in vitro model (growth promotant activity)
[1] = rye diet; for Feed/Gain 3-10: days 3-10; for Feed/Gain 3-17: days 3-17; for Feed/Gain 10-17: days 10-17
[2] = system: Proteus mirabilis SK & F 444; format: cell-based; settings: Table A
[3] = system: E. coli 12140 (SK & F 809); format: cell-based
[4] = system: Kleb. pneumoniae 4200 (SK & F 798); format: cell-based; settings: Table A
[5] = system: Pseudomonas aeruginosa HH63; format: cell-based; settings: Table A
[6] = system: Serratia marcesens ATCC 13880; format: cell-based; settings: Table A
[7] = system: Proteus morgani SK & F 179; format: cell-based; settings: Table A
Providencia SK & F 276 = format: cell-based; settings: Table A
[8] = system: Enterobacter cloacae HH31254; format: cell-based; settings: Table A
[9] = system: Bacteroides fragilis ATCC 25285; format: cell-based; settings: Table D, Anaerobes
B. fragilis SK & F 3060 = format: cell-based, Bacteroides fragilis; settings: Table D, Anaerobes
[10] = system: B. thetaiotamicron SK & F 3089; format: cell-based; settings: Table D, Anaerobes
[11] = system: Fusobacterium nucleatum ATCC 25586; format: cell-based; settings: Table D, Anaerobes
[12] = system: Staph. aureus 209P-Mutant; experiment: microbe, parasite or virus in culture; format: cell-based; settings: Table E
[13] = system: Staph. aureus SK & F 674-P6 Mutant; experiment: microbe, parasite or virus in culture; format: cell-based; settings: Table E
[14] = system: Staph. epidermidis SK & F 2683; format: cell-based; settings: Table E
[15] = system: Staph. epidermidis SK & F 2265; format: cell-based; settings: Table E
[16] = system: Strep. faecalis SK & F 657; format: cell-based; settings: Table E
rumen in vitro model [17] = experiment: rumen in vitro model (growth promotant activity); parameters: species or system steer
Procedure: The protocol for the rumen in vitro model is analogous to the protocol for the swine in vitro model with the following modifications:
(1) A 400 kg steer is surgically prepared with a rumen cannula.
(2) The animal is fed one time a day with the following ration:
(3) Manipulation of VFA production is described as the production ratio of propionate as a percentage of total VFA produced.
(4) Sampling of the material, via the cannula, is at 120 minutes post feeding.

solubility = format: physicochemical
[18] = system: Salmonella gallinarum BC595
rumen in vitro model [19] = experiment: rumen in vitro model (growth promotant activity); parameters: species or system steer; remark: listed apart in the source

For [H]/N=C(/N)N[C@H]1[C@H](O)[C@@H](O)[C@H](O[C@@H]2O[C@@H](C)[C@](O)(C=O)[C@H]2O[C@@H]2O[C@@H](CO)[C@H](O)[C@@H](O)[C@@H]2NC)[C@@H](N/C(N)=N\[H])[C@@H]1O [streptomycin], the “susceptibility of K. aridum” value (K. aridum; disk 10 μg) was “resistant”.
In the case of Virginiamycin, the “LAC (L-lactic acid)” value (Swine in vitro model) is reported as 81 % Control, the “GLU (glucose)” value (Swine in vitro model; 1.67 ppm) is reported as 182 % Control and the “LAC (L-lactic acid)” value (Swine in vitro model; 1.67 ppm) is reported as 70 % Control. For the same compound, the “LYS (lysine)” value (Swine in vitro model; 1.67 ppm) was 82 % Control, the “GLU (glucose)” value (Swine in vitro model; 16.67 ppm) was 191 % Control and the “LAC (L-lactic acid)” value (Swine in vitro model; 16.67 ppm) was 76 % Control. The “LYS (lysine)” value (Swine in vitro model; 16.67 ppm) was 127 % Control, the “GLU (glucose)” value (Swine in vitro model; 166.67 ppm) was 197 % Control and the “LYS (lysine)” value (Swine in vitro model; 166.67 ppm) was 163 % Control. The “Weight Day 10” value ([1]; 10.0 PPM) was 103.8 % of Control, the “Weight Day 17” value ([1]; 10.0 PPM) was 116.0 % of Control and the “Feed/Gain 3-10” value ([1]; 10.0 PPM) was 97.4 % of Control. The “Feed/Gain 3-17” value ([1]; 10.0 PPM) was 90.4 % of Control, the “Feed/Gain 10-17” value ([1]; 10.0 PPM) was 83.6 % of Control and the “Weight Day 10” value ([1]; 50.0 PPM) was 105.0 % of Control. For the same compound, the “Weight Day 17” value ([1]; 50.0 PPM) was 121.3 % of Control, the “Feed/Gain 3-10” value ([1]; 50.0 PPM) was 93.2 % of Control and the “Feed/Gain 3-17” value ([1]; 50.0 PPM) was 83.2 % of Control. The “Feed/Gain 10-17” value ([1]; 50.0 PPM) was 74.6 % of Control.
For CCC[C@@H]1C[C@@H](C(=O)N[C@@H]([C@H]2O[C@H](SC)[C@H](O)[C@@H](O)[C@H]2O)[C@@H](C)O)N(C)C1 [lincomycin], the “susceptibility of K. aridum” value (K. aridum; disk 2 μg) was “resistant”.
With CC1(C)S[C@@H]2[C@H](NC(=O)Cc3ccccc3)C(=O)N2[C@H]1C(=O)O [penicillin] the “susceptibility of K. aridum” value (K. aridum; disk 10 units) was “resistant”.
Compound CCCCCCCCCC(=O)N[C@H]1[C@H](Oc2c3cc4cc2Oc2c(Cl)cc(cc2Cl)[C@@H](O)[C@@H]2NC(=O)[C@H](NC(=O)[C@@H]4NC(=O)[C@H]4NC(=O)[C@H](NC(=O)[C@H](NC)c5ccc(O)c(c5)Oc5cc(O)c(Cl)c4c5)[C@H](O)c4ccc(c(Cl)c4)O3)c3ccc(O)c(c3)-c3c(O[C@H]4O[C@H](CO)[C@@H](O)[C@H](O)[C@@H]4O)cc(O)cc3[C@@H](C(=O)O)NC2=O)O[C@H](C(=O)O)[C@@H](O)[C@@H]1O [AAD 216A] has an MIC [2] of over 100 µg/mL, an MIC ([3]; Table A) of over 100 µg/mL and an MIC ([3]; Table E) of over 100 µg/mL. For the same compound, the MIC [4] was over 100 µg/mL, the MIC [5] was over 100 µg/mL and the MIC [6] was over 100 µg/mL. It also gave an MIC [7] of over 100 µg/mL, an MIC (Providencia SK & F 276) of over 100 µg/mL and an MIC [8] of over 100 µg/mL. The MIC [9] was 32 µg/mL (≈ 17.9 µM), the MIC (B. fragilis SK & F 3060) was 32 µg/mL (≈ 17.9 µM) and the MIC [10] was over 32 µg/mL. The MIC [11] was 32 µg/mL (≈ 17.9 µM), the MIC [12] was 100 µg/mL (≈ 55.9 µM) and the MIC [13] was ~ 100 μg/ml. It also gave an MIC [14] of 100 µg/mL (≈ 55.9 µM), an MIC [15] of 100 µg/mL (≈ 55.9 µM) and an MIC [16] of 0.8 µg/mL (≈ 0.447 µM). The “GLU (glucose)” value (Swine in vitro model) was 187 % Control and 191 % Control, the “LYS (lysine)” value (Swine in vitro model) was 63 % Control and 50 % Control and 94 % Control and the “VFA (total of volatile fatty acids)” value (rumen in vitro model [17]) was 111 % Control and 94 % Control. For the same compound, the solubility (solubility; H2O, methanol, dimethylsulfoxide, dimethylformamide) was “soluble”, the solubility (solubility; ethanol, acetonitrile, acetone, diethylether, aliphatic hydrocarbons) was “insoluble” and the MIC ([18]; Table A) was over 100 µg/mL. The MIC ([18]; Table E) was over 100 µg/mL and the “LYS (lysine)” value (rumen in vitro model [19]) was 114 % Control.
Work on CO[C@H]1/C=C/O[C@@]2(C)Oc3c(C)c(O)c4c(O)c(c(/C=N/N5CCN(C)CC5)c(O)c4c3C2=O)NC(=O)/C(C)=C\C=C\[C@H](C)[C@H](O)[C@@H](C)[C@@H](O)[C@@H](C)[C@H](OC(C)=O)[C@@H]1C [rifampin] yielded a zone of inhibition at 5 µg/disc (K. aridum) of 11 to 15 mm.
For CC[C@@]1([C@H]2O[C@H]([C@H]3O[C@@](O)(CO)[C@H](C)C[C@@H]3C)C[C@H]2C)CC[C@H]([C@@]2(C)CC[C@]3(C[C@H](O)[C@@H](C)[C@@H]([C@H](C)[C@H](OC)[C@@H](C)C(=O)O)O3)O2)O1 [Monensin Sodium], the Propionate % (rumen in vitro model [17]) was 156 % Control and 149 % Control and 119 % Control, the “VFA (total of volatile fatty acids)” value (rumen in vitro model [17]) was 104 % Control and 94 % Control and the “LYS (lysine)” value (rumen in vitro model [19]) was 147 % Control and 141 % Control.
In the case of gentamicin, the “susceptibility of K. aridum” value (K. aridum; disk 10 μg) is reported as “resistant”.
In the case of CO[C@@H]1[C@@H](OC(N)=O)[C@@H](O)[C@H](Oc2ccc3c(O)c(NC(=O)c4ccc(O)c(CC=C(C)C)c4)c(=O)oc3c2C)OC1(C)C [novobiocin], the zone of inhibition at 5 µg/disc (K. aridum) is reported as 27 to 28 mm.
